Data published in US5342980A, “Fungicidal agents” (American Cyanamid Company, priority 1992, dated 1994).

Legend:
[1] = test system: Fusarium oxysporum f. sp. cucumerinum; experiment: In vitro fungicidal evaluation, growth inhibition (FUSOXC); type: cell-based; set-up: scale not given here; conditions: 25 ppm, 3-4 days at 21° C.
Procedure: (§1) Test compounds are dissolved in acetone and dispersed into cell well plates containing a suspension of ground fungal mycelia in a nutrient broth. Assay plates are incubated for 3-4 days at 21° C. Growth inhibition is measured visually and is rated using the following scale:
(§2) Untreated controls, solvent blanks and reference standards are included in each test.
(§3) Assay fungi include the plant pathogens, Pythium ultimum (Pythul); Rhizoctonia solani (Rhizso); Fusarium oxysporum f. sp. cucumerinum (Fusoxc); and Pseudocercosporella herpotrichoides (Psdche).
(§4) When more than one test is run, the data are averaged.

[2] = test system: Pseudocercosporella herpotrichoides; experiment: In vitro fungicidal evaluation, growth inhibition (PSDCHE); type: cell-based; set-up: scale not given here; conditions: 25 ppm, 3-4 days at 21° C.
Procedure: as §1, §2, §3, §4

[3] = test system: Pythium ultimum; experiment: In vitro fungicidal evaluation, growth inhibition (PYTHUL); type: cell-based; set-up: scale not given here; conditions: 25 ppm, 3-4 days at 21° C.
Procedure: as §1, §2, §3, §4

[4] = test system: Rhizoctonia solani; experiment: In vitro fungicidal evaluation, growth inhibition (RHIZSO); type: cell-based; set-up: scale not given here; conditions: 25 ppm, 3-4 days at 21° C.
Procedure: as §1, §2, §3, §4

[5] = test system: Venturia inaequalis; experiment: In vivo fungicidal evaluation, Apple Scab (AS); conditions: 200 ppm, plants sprayed before inoculation
[6] = test system: Plasmopara viticola; experiment: In vivo fungicidal evaluation, Grape Downy Mildew (GDM); conditions: 200 ppm, plants sprayed before inoculation
[7] = test system: Botrytis cinerea; experiment: In vivo fungicidal evaluation, Pepper Botrytis (PB); conditions: 200 ppm, plants sprayed before inoculation
[8] = test system: Pyricularia oryzae; type: in vivo; conditions: 200 ppm, plants sprayed before inoculation
[9] = test system: Cercospora beticola; experiment: In vivo fungicidal evaluation, Sugar Beet Cercospora (SBC); conditions: plants sprayed before inoculation
[10] = test system: Alternaria solani; experiment: In vivo fungicidal evaluation, Tomato Early Blight (TEB); conditions: 200 ppm, plants sprayed before inoculation
[11] = test system: Erysiphe graminis f. sp. tritici; experiment: In vivo fungicidal evaluation, Wheat Powdery Mildew (WPM); conditions: 200 ppm, plants sprayed before inoculation

| Compound | growth inhibition rating, FUSOXC [1] | growth inhibition rating, PSDCHE [2] | growth inhibition rating, PYTHUL [3] | growth inhibition rating, RHIZSO [4] | disease control rating, AS [5] | disease control rating, GDM [6] | disease control rating, PB [7] | disease control rating, RB [8] | disease control rating, SBC ([9]; 200 ppm) | disease control rating, TEB [10] | disease control rating, WPM [11] | disease control rating, SBC ([9]; 400 ppm) |
| --- | --- | --- | --- | --- | --- | --- | --- | --- | --- | --- | --- | --- |
| CN(O)C(=S)C(=O)C1(C)CC1 [N,1-dimethyl-alpha-thio-cyclopropaneglyoxylohydroxamic acid] | 0.5 | 0.0 | 7.0 | 0.0 | – | – | – | – | – | – | – | – |
| CN(OC(=O)c1ccc(Cl)cc1)C(=S)C(=O)C(C)(C)C [p-Chlorobenzoate ester of N,3,3-trimethyl-2-oxo-1-thiobutyrohydroxamate] | 0.0 | 0.0 | 0.0 | 0.0 | 8.0 | 0.0 | 8.0 | 6.0 | 4.0 | 6.0 | 3.0 | – |
| CC(C)(C)C(=O)C(=S)N(O)C1CCCC1 [N-cyclopentyl-3,3-dimethyl-2-oxo-1-thiobutyrohydroxamic acid] | 1.5 | 1.5 | 3.0 | 1.5 | 0.0 | 0.0 | 0.0 | 0.0 | 0.3 | 0.0 | 0.0 | – |
| CC(=O)ON(C)C(=S)C(=O)C(C)(C)C [acetate ester of N,3,3-trimethyl-2oxo-1-thiobutyrohydroxamate] | 0.0 | 0.0 | 9.0 | 0.0 | 0.0 | 0.0 | 0.0 | 0.0 | 0.0 | 5.0 | 0.0 | – |
| CC(C)(C)C(=O)C(=S)N(O)Cc1ccccc1 [N-benzyl-3,3-dimethyl-2-oxo-1-thiobutyrohydroxamic acid] | 3.5 | 7.0 | 7.0 | 4.5 | – | – | – | – | – | – | – | – |
| CN([O-])C(=S)C(=O)C12CC3CC(CC(C3)C1)C2.CN([O-])C(=S)C(=O)C12CC3CC(CC(C3)C1)C2.[Cu+2] [N-methyl-alpha-thio-1-adamantaneglyoxylohydroxamic acid copper(+2) chelate] | 0.0 | 0.0 | 0.0 | 0.0 | 0.0 | 0.0 | 0.0 | 0.0 | 0.5 | 0.0 | 0.0 | 1.8 |
| C=CC(=O)ON(C)C(=S)C(=O)C(C)(C)C [acrylate ester of N,3,3-trimethyl-2-oxo-1-thiobutyrohydroxamate] | 0.0 | 7.0 | 9.0 | 0.0 | 0.0 | 0.0 | 2.0 | 0.0 | 0.0 | 0.0 | 0.0 | – |
| COC(=O)ON(C)C(=S)C(=O)C(C)(C)C [methylcarbonate ester of N,3,3-trimethyl-2-oxo-1thiobutyrohydroxamate] | 0.0 | 0.0 | 5.0 | 0.0 | 0.0 | 0.0 | 0.0 | 0.0 | 0.0 | 2.0 | 0.0 | – |
| N-methyl-alpha-thio-1-adamantaneglyoxylohydroxamic acid zinc(+2) chelate | 0.0 | 0.0 | 1.5 | 0.0 | 0.0 | 0.0 | 0.0 | 0.0 | 0.5 | 0.0 | 0.0 | 3.0 |
| CC(C)(C)C(=O)C(=S)N(O)C1CCCC1.CC(C)(C)C(=O)C(=S)N(O)C1CCCC1.[Zn+2] [N-cyclopentyl-3,3-dimethyl-2-oxo-1-thiobutyrohydroxamic acid zinc(+2) chelate] | 3.7 | 3.0 | 7.0 | 3.3 | 0.0 | 0.0 | 0.0 | 0.0 | 2.3 | 0.0 | 0.0 | 1.0 |
| CC(C)(C)C(=O)C(=S)N([O-])Cc1ccccc1.CC(C)(C)C(=O)C(=S)N([O-])Cc1ccccc1.[Cu+2] [N-benzyl-3,3-dimethyl-2-oxo-1-thiobutyrohydroxamic acid copper(+2) chelate] | 0.0 | 0.0 | 1.5 | 1.5 | – | – | – | – | – | – | – | – |
| CC(C)(C)C(=O)C(=S)N([O-])C1CCCC1.CC(C)(C)C(=O)C(=S)N([O-])C1CCCC1.[Cu+2] [N-cyclopentyl-3,3-dimethyl-2-oxo-1-thiobutyrohydroxamic acid copper(+2) chelate] | 0.0 | 0.0 | 0.0 | 0.0 | 0.0 | 0.0 | 0.0 | 0.0 | 0.5 | 0.0 | 0.0 | 2.0 |
| CC(C)(C)C(=O)C(=S)N(Cc1ccccc1)OC(=O)Nc1ccccc1 [Carbanilate ester of N-benzyl-3,3-dimethyl-2-oxo-1-thiobutyrohydroxamate] | 0.5 | 0.0 | 6.0 | 2.5 | – | – | – | – | – | – | – | – |
| CC(C)(C)C(=O)C(=S)N([O-])C1CCCC1.CC(C)(C)C(=O)C(=S)N([O-])C1CCCC1.CC(C)(C)C(=O)C(=S)N([O-])C1CCCC1.[Fe+3] [N-cyclopentyl-3,3-dimethyl-2-oxo-1-thiobutyrohydroxamicacid iron(+3) chelate] | 0.0 | 0.0 | 0.0 | 0.0 | 0.0 | 0.0 | 0.0 | 0.0 | 0.8 | 0.0 | 0.0 | 1.8 |
